Measurements as given in US20040157811A1, “Inhibition of the growth factor dependency of tumor cells” (priority 2000, published 2004).
“Also recorded” adds a separate entry of the source.

Legend:
[1] = system: breast carcinoma cell line T47D; experiment: Growth studies, antiproliferative action on T47D cells (crystal violet); format: cell-based, human; conditions: 0.1 nM estradiol, 6 days, increasing concentrations, FIG. 1
Protocol: The tumor cells were cultivated at 5000 cells/well in 96-well plates for 6 days in RPMI medium plus 10% bovine serum, 200 nM of insulin and 0.1 nM of estradiol in the presence of the compounds that are indicated in each case, and the growth was determined by staining with crystal violet.
2. […] T47D cells were cultivated in the presence (upper cross-hatching) or absence (lower cross-hatching) of 0.1 nM of E2 plus increasing concentrations of compound A (▴), onapristone (▪), ZK191703 (●) or 4-OH-Tam (♦).

[2] = system: binding of EGF to T47D cells; experiment: Binding of 125I-EGF to tumor cells (R5020-pretreated T47D cells); format: cell-based, human; conditions: for block of the R5020-caused increase of 125I-EGF binding to intact T47D cells: T47D cells treated 48 hours with 2 or 20 nM R5020 plus test substance, FIG. 5
Protocol: R5020-Pretreated T47D cells were incubated for 2 hours with ^125I-EGF at 4° C. The unspecific binding was always less than 10% of the total binding.
In FIG. 4, a Scatchard analysis of the ^125I-EGF binding to T47D cells is shown. The cells were cultivated for 48 hours in the presence of 20 nM of R5020 with or without 20 nM of compound A and then washed. Then, the EGF-binding over a concentration range of 0.25 to 150 ng/ml of EGF was determined by incubation for 2 hours at 4° C. The insertions show the amount of bonded ligands relative to the logarithm of the free ligand concentration.
In FIG. 5, the binding of ^125I-EGF to intact T47D cells is shown. For this purpose, the cells were treated for 48 hours with 2 or 20 nM of R5020 plus compound A or onapristone or compound A alone.

[3] = target: T1, progesterone receptor (PR) (Homo sapiens, UniProt P06401); experiment: Transactivation assay (MTV-LUC, luciferase) in T47D cells; format: cell-based; conditions: T47D cells transiently transfected with MTV-LUC, treated with R5020 plus increasing concentrations, 24 hours, FIG. 3
T1 construct: T47D cells were transiently transfixed with MTV-LUC; endogenous in cells; host or cells: T47D human breast carcinoma cells
T1 sequence (P06401 1-933): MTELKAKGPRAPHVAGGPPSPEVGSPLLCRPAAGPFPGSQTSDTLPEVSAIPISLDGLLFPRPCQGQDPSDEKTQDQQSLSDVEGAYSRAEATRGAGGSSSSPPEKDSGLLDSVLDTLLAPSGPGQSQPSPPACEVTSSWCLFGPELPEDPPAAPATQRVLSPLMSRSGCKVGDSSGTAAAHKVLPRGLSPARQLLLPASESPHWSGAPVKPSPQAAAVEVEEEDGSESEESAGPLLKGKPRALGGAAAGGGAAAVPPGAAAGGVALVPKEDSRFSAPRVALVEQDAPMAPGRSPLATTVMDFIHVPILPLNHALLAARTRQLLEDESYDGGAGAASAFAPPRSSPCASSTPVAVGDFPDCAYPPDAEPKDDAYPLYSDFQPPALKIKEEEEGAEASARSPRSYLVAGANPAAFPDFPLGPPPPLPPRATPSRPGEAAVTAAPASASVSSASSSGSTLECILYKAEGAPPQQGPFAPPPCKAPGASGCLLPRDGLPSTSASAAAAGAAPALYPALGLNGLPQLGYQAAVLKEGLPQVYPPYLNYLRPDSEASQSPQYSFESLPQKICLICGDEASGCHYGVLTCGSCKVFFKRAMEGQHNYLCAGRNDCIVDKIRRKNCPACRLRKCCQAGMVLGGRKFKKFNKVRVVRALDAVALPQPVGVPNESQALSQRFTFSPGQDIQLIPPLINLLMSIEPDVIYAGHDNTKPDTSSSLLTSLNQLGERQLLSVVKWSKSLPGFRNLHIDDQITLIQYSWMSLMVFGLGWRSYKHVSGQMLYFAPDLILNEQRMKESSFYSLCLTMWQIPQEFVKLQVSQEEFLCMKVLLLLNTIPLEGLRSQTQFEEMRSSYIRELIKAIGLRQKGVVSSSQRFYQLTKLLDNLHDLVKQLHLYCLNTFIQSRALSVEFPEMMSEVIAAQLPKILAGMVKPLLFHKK
Protocol: T47D cells were transiently transfixed with MTV-LUC (Cato et al., EMBO J., 9: 2237-40) and cultivated in the absence or the presence of 1 nM of R5020. In the test on a PR-mediated antagonism, the transiently transfixed T47D cells were treated with R5020 and in addition with increasing concentrations of compound A or RU486. After 24 hours, a luciferase test was performed.
In the test for a PR-mediated antagonism, the transiently transfixed T47D cells were treated with 0.1 nM of R5020 and increasing concentrations of compound A or […] (b).

EGF-receptor expression = EGF-receptor expression in R5020-stimulated T47D cells; format: cell-based, human; conditions: T47D cells stimulated with R5020

block of transcriptional activity of PR (PR-mediated antagonism) [3] | Structure (SMILES) | antiproliferative action / block of estradiol-stimulated growth of T47D cells [1] | block of the R5020-caused increase of 125I-EGF binding to intact T47D cells [2] | block of the R5020-caused increase of 125I-EGF binding (Scatchard analysis) ([2]; T47D cells, 48 hours, 20 nM R5020 with 20 nM compound A, EGF 0.25 to 150 ng/ml, 2 hours at 4° C, FIG. 4) | block of R5020-increased EGF-receptor expression (EGF-receptor expression)
could be blocked | CC(=O)c1ccc([C@H]2C[C@@]3(C)[C@@H](CC[C@@]3(O)C(F)(F)C(F)(F)F)[C@@H]3CCC4=CC(=O)CCC4=C32)cc1 [compound A, 11β-(4-acetylphenyl)-17β-hydroxy-17α-(1,1,2,2,2-pentafluoroethyl)-estra-4,9-dien-3-one] | significant antiproliferative action at extremely small concentrations; also recorded: effectively blocked | blocks the increase of the EGF-binding; also recorded: could be prevented | block the increase of the EGF binding | blocked
– | CN(C)c1ccc([C@H]2C[C@]3(C)[C@@H](CC[C@]3(O)CCCO)[C@@H]3CCC4=CC(=O)CCC4=C32)cc1 [onapristone, 11β-[p-(dimethylamino)phenyl]-17α-hydroxy-17-(3-hydroxypropyl)-13α-estra-4,9-dien-3-one, reference compound] | – | considerably weaker effect; also recorded: less efficiently | – | –
